Reference: patent US12310975B2, “Modulators of BCL6 proteolysis and associated methods of use” (Arvinas Operations, Inc., priority 2019, dated 2025)

Target: BCL6 (Homo sapiens (Human), UniProt P41182)
Assay: Immunofluorescence high content imaging of BCL6 degradation in T47D cells
Format: cell-based
Details: for Dmax: T47D
Summary of the method: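 T47D, 3 d compound exposure, 11-pt 3-fold series, top 0.1 or 1 μM final. Fix 4% PFA, Triton permeabilize, anti-BCL6 primary overnight 4 °C, Alexa-488 secondary. High-content imaging 10×, 4 fields/well, top-hat smoothing.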

| Structure (SMILES) | IC50 | Dmax |
| --- | --- | --- |
| CC(=O)COc1cc2cc(Nc3nc(N4CCOC(COc5ccc6c(c5)C(=O)N(C5CCC(=O)NC5=O)C6=O)C4)ncc3Cl)ccc2n(C)c1=O (stereo not shown) [compound 179, 5-((4-(5-chloro-4-((1-methyl-2-oxo-3-(2-oxopropoxy)-1,2-dihydroquinolin-6-yl)amino)pyrimidin-2-yl)morpholin-2-yl)methoxy)-2-(2,6-dioxopiperidin-3-yl)isoindoline-1,3-dione] | ≥ 100 nM | 50 to 70% |
| CC(=O)COc1cc2cc(Nc3nc(C#CC4CCCN(c5ccc6c(c5)C(=O)N(C5CCC(=O)NC5=O)C6=O)C4)ncc3Cl)ccc2n(C)c1=O (stereo not shown) [compound 181, 5-(3-((5-chloro-4-((1-methyl-2-oxo-3-(2-oxopropoxy)-1,2-dihydroquinolin-6-yl)amino)pyrimidin-2-yl)ethynyl)piperidin-1-yl)-2-(2,6-dioxopiperidin-3-yl)isoindoline-1,3-dione] | ≥ 100 nM | – |
| CC(=O)COc1cc2cc(Nc3nc(N4CCC(N5CCCC5COc5ccc6c(c5)C(=O)N(C5CCC(=O)NC5=O)C6=O)CC4)ncc3Cl)ccc2n(C)c1=O (stereo not shown) [compound 182, 5-((1-(1-(5-chloro-4-((1-methyl-2-oxo-3-(2-oxopropoxy)-1,2-dihydroquinolin-6-yl)amino)pyrimidin-2-yl)piperidin-4-yl)pyrrolidin-2-yl)methoxy)-2-(2,6-dioxopiperidin-3-yl)isoindoline-1,3-dione] | ≥ 100 nM | < 50% |
| CC(=O)COc1cc2cc(Nc3nc(C#CC4CCN(c5cccc6c5C(=O)N(C5CCC(=O)NC5=O)C6=O)CC4)ncc3Cl)ccc2n(C)c1=O (stereo not shown) [compound 184, 4-(4-((5-chloro-4-((1-methyl-2-oxo-3-(2-oxopropoxy)-1,2-dihydroquinolin-6-yl)amino)pyrimidin-2-yl)ethynyl)piperidin-1-yl)-2-(2,6-dioxopiperidin-3-yl)isoindoline-1,3-dione] | 10 to 50 nM | 50 to 70% |
| CNC(=O)COc1cc2cc(Nc3nc(N4CCN(C)CC4)ncc3Cl)ccc2n(CCCCOc2ccc3c(c2)C(=O)N(C2CCC(=O)NC2=O)C3=O)c1=O (stereo not shown) [compound 238, 2-((6-((5-chloro-2-(4-methylpiperazin-1-yl)pyrimidin-4-yl)amino)-1-(4-((2-(2,6-dioxopiperidin-3-yl)-1,3-dioxoisoindolin-5-yl)oxy)butyl)-2-oxo-1,2-dihydroquinolin-3-yl)oxy)-N-methylacetamide] | ≥ 100 nM | < 50% |
| CNC(=O)COc1cc2cc(Nc3nc(N4CCN(CC5CCN(c6ccc(C(=O)NC7CCC(=O)NC7=O)c(OC)c6)CC5)CC4)ncc3Cl)ccc2n(C)c1=O (stereo not shown) [compound 243, 4-(4-((4-(5-chloro-4-((1-methyl-3-(2-(methylamino)-2-oxoethoxy)-2-oxo-1,2-dihydroquinolin-6-yl)amino)pyrimidin-2-yl)piperazin-1-yl)methyl)piperidin-1-yl)-N-(2,6-dioxopiperidin-3-yl)-2-methoxybenzamide] | < 10 nM | ≥ 70% |
| CNC(=O)COc1cc2cc(Nc3nc(N4CCN(C)CC4)ncc3Cl)ccc2n(CCCOc2ccc3c(c2)C(=O)N(C2CCC(=O)NC2=O)C3=O)c1=O (stereo not shown) [compound 244, 2-((6-((5-chloro-2-(4-methylpiperazin-1-yl)pyrimidin-4-yl)amino)-1-(3-((2-(2,6-dioxopiperidin-3-yl)-1,3-dioxoisoindolin-5-yl)oxy)propyl)-2-oxo-1,2-dihydroquinolin-3-yl)oxy)-N-methylacetamide] | ≥ 100 nM | ≥ 70% |
| Cn1c(=O)c(N2CCC2=O)cc2cc(Nc3nc(N4CCN(CC5CCN(c6ccc7c(c6)C(=O)N(C6CCC(=O)NC6=O)C7=O)CC5)CC4)ncc3Cl)ccc21 (stereo not shown) [compound 249, 5-(4-((4-(5-chloro-4-((1-methyl-2-oxo-3-(2-oxoazetidin-1-yl)-1,2-dihydroquinolin-6-yl)amino)pyrimidin-2-yl)piperazin-1-yl)methyl)piperidin-1-yl)-2-(2,6-dioxopiperidin-3-yl)isoindoline-1,3-dione] | ≥ 100 nM | – |

More lines, now with the values ahead:

| IC50 | Dmax | Structure (SMILES) |
| --- | --- | --- |
| ≥ 100 nM | < 50% | CC(=O)COc1cc2cc(Nc3nc(N4CCC(N5CCC(Oc6ccc7c(c6)C(=O)N(C6CCC(=O)NC6=O)C7=O)C5)CC4)ncc3Cl)ccc2n(C)c1=O (stereo not shown) [compound 177, 5-((1-(1-(5-chloro-4-((1-methyl-2-oxo-3-(2-oxopropoxy)-1,2-dihydroquinolin-6-yl)amino)pyrimidin-2-yl)piperidin-4-yl)pyrrolidin-3-yl)oxy)-2-(2,6-dioxopiperidin-3-yl)isoindoline-1,3-dione] |
| 10 to 50 nM | < 50% | CC(=O)COc1cc2cc(Nc3nc(N4CCC(OC5CN(c6ccc7c(c6)C(=O)N(C6CCC(=O)NC6=O)C7=O)C5)CC4)ncc3Cl)ccc2n(C)c1=O (stereo not shown) [compound 178, 5-(3-((1-(5-chloro-4-((1-methyl-2-oxo-3-(2-oxopropoxy)-1,2-dihydroquinolin-6-yl)amino)pyrimidin-2-yl)piperidin-4-yl)oxy)azetidin-1-yl)-2-(2,6-dioxopiperidin-3-yl)isoindoline-1,3-dione] |
| ≥ 100 nM | – | CC(=O)COc1cc2cc(Nc3nc(N4CCC(OCCOC5CCN(c6ccc7c(c6)C(=O)N(C6CCC(=O)NC6=O)C7=O)CC5)C4)ncc3Cl)ccc2n(C)c1=O (stereo not shown) [compound 180, 5-(4-(2-((1-(5-chloro-4-((1-methyl-2-oxo-3-(2-oxopropoxy)-1,2-dihydroquinolin-6-yl)amino)pyrimidin-2-yl)pyrrolidin-3-yl)oxy)ethoxy)piperidin-1-yl)-2-(2,6-dioxopiperidin-3-yl)isoindoline-1,3-dione] |
| 10 to 50 nM | < 50% | CC(=O)COc1cc2cc(Nc3nc(N4CC(OC5CCN(c6ccc7c(c6)C(=O)N(C6CCC(=O)NC6=O)C7=O)CC5)C4)ncc3Cl)ccc2n(C)c1=O (stereo not shown) [compound 183, 5-(4-((1-(5-chloro-4-((1-methyl-2-oxo-3-(2-oxopropoxy)-1,2-dihydroquinolin-6-yl)amino)pyrimidin-2-yl)azetidin-3-yl)oxy)piperidin-1-yl)-2-(2,6-dioxopiperidin-3-yl)isoindoline-1,3-dione] |
| ≥ 100 nM | – | CNC(=O)Cc1cc2cc(Nc3nc(N4CCC(CN5CCN(c6ccc7c(c6)C(=O)N(C6CCC(=O)NC6=O)C7=O)CC5)CC4)ncc3Cl)ccc2n(C)c1=O (stereo not shown) [compound 239, 2-(6-((5-chloro-2-(4-((4-(2-(2,6-dioxopiperidin-3-yl)-1,3-dioxoisoindolin-5-yl)piperazin-1-yl)methyl)piperidin-1-yl)pyrimidin-4-yl)amino)-1-methyl-2-oxo-1,2-dihydroquinolin-3-yl)-N-methylacetamide] |
| 10 to 50 nM | 50 to 70% | CNC(=O)COc1cc2cc(Nc3nc(N4CCN(CC5(O)CCN(c6ccc7c(c6)C(=O)N(C6CCC(=O)NC6=O)C7=O)CC5)CC4)ncc3Cl)ccc2n(C)c1=O (stereo not shown) [compound 240, 2-((6-((5-chloro-2-(4-((1-(2-(2,6-dioxopiperidin-3-yl)-1,3-dioxoisoindolin-5-yl)-4-hydroxypiperidin-4-yl)methyl)piperazin-1-yl)pyrimidin-4-yl)amino)-1-methyl-2-oxo-1,2-dihydroquinolin-3-yl)oxy)-N-methylacetamide] |
| 10 to 50 nM | < 50% | CNC(=O)COc1cc2cc(Nc3nc(N4CCCC(OC5CCN(c6ccc7c(c6)C(=O)N(C6CCC(=O)NC6=O)C7=O)CC5)CC4)ncc3Cl)ccc2n(C)c1=O (stereo not shown) [compound 241, 2-((6-((5-chloro-2-(4-((1-(2-(2,6-dioxopiperidin-3-yl)-1,3-dioxoisoindolin-5-yl)piperidin-4-yl)oxy)azepan-1-yl)pyrimidin-4-yl)amino)-1-methyl-2-oxo-1,2-dihydroquinolin-3-yl)oxy)-N-methylacetamide] |
| ≥ 100 nM | – | CNC(=O)COc1cc2cc(Nc3nc(N4CCC(OC5CCCN(c6ccc7c(c6)C(=O)N(C6CCC(=O)NC6=O)C7=O)CC5)CC4)ncc3Cl)ccc2n(C)c1=O (stereo not shown) [compound 242, 2-((6-((5-chloro-2-(4-((1-(2-(2,6-dioxopiperidin-3-yl)-1,3-dioxoisoindolin-5-yl)azepan-4-yl)oxy)piperidin-1-yl)pyrimidin-4-yl)amino)-1-methyl-2-oxo-1,2-dihydroquinolin-3-yl)oxy)-N-methylacetamide] |
| < 10 nM | ≥ 70% | CNC(=O)COc1cc2cc(Nc3nc(N4CCN(CC5CN(c6ccc7c(c6)C(=O)N(C6CCC(=O)NC6=O)C7=O)C5)CC4)ncc3Cl)ccc2n(C)c1=O (stereo not shown) [compound 246, 2-((6-((5-chloro-2-(4-((1-(2-(2,6-dioxopiperidin-3-yl)-1,3-dioxoisoindolin-5-yl)azetidin-3-yl)methyl)piperazin-1-yl)pyrimidin-4-yl)amino)-1-methyl-2-oxo-1,2-dihydroquinolin-3-yl)oxy)-N-methylacetamide] |
| < 10 nM | 50 to 70% | CNC(=O)COc1cc2cc(Nc3nc(N4CCC(CCOC5CN(c6ccc7c(c6)C(=O)N(C6CCC(=O)NC6=O)C7=O)C5)CC4)ncc3Cl)ccc2n(C)c1=O (stereo not shown) [compound 247, 2-((6-((5-chloro-2-(4-(2-((1-(2-(2,6-dioxopiperidin-3-yl)-1,3-dioxoisoindolin-5-yl)azetidin-3-yl)oxy)ethyl)piperidin-1-yl)pyrimidin-4-yl)amino)-1-methyl-2-oxo-1,2-dihydroquinolin-3-yl)oxy)-N-methylacetamide] |
| ≥ 100 nM | – | CNC(=O)COc1cc2cc(Nc3nc(N4CCC(CN5CC6(C5)CN(c5ccc7c(c5)C(=O)N(C5CCC(=O)NC5=O)C7=O)C6)CC4)ncc3Cl)ccc2n(C)c1=O (stereo not shown) [compound 248, 2-((6-((5-chloro-2-(4-((6-(2-(2,6-dioxopiperidin-3-yl)-1,3-dioxoisoindolin-5-yl)-2,6-diazaspiro[3.3]heptan-2-yl)methyl)piperidin-1-yl)pyrimidin-4-yl)amino)-1-methyl-2-oxo-1,2-dihydroquinolin-3-yl)oxy)-N-methylacetamide] |
| < 10 nM | 50 to 70% | CCn1c(=O)c(OCC(=O)NC)cc2cc(Nc3nc(N4CCN(CC5CCN(c6ccc7c(c6)C(=O)N(C6CCC(=O)NC6=O)C7=O)CC5)CC4)ncc3Cl)ccc21 (stereo not shown) [compound 250, 2-((6-((5-chloro-2-(4-((1-(2-(2,6-dioxopiperidin-3-yl)-1,3-dioxoisoindolin-5-yl)piperidin-4-yl)methyl)piperazin-1-yl)pyrimidin-4-yl)amino)-1-ethyl-2-oxo-1,2-dihydroquinolin-3-yl)oxy)-N-methylacetamide] |
